Assay results: patent publication US20160067272A1, “METHODS FOR TREATING IMMUNE DISEASES” (priority 2013, published 2016)

Tests used:
Tph-1 = biological target: T1, Tph-1 (Mus musculus, UniProt P17532); assay: EAE mouse model with Tph-1 inhibition (NAD+ plus p-Chlorophenylalanine); format: in vivo
T1 construct: from tissue; host or cells: whole animal: C57BL/6 mice (Charles River Laboratories)
T1 sequence (P17532 1-447): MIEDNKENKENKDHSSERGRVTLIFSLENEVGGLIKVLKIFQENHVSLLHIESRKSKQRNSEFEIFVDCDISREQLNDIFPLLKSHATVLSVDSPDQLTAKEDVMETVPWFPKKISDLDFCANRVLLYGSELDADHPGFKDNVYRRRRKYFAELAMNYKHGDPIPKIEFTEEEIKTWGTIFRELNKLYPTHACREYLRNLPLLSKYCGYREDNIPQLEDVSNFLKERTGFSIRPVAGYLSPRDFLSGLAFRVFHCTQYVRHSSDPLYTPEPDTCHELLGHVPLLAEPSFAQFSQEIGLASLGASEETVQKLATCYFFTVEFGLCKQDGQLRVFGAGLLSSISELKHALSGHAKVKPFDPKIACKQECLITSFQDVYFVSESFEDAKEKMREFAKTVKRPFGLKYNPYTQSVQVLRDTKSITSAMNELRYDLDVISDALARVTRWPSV
Method: Tph-1 has been very recently shown to prevent from allograft rejection and EAE^45. Thus, it was tested, in vivo, whether NAD^+ protects from EAE and regulates CD4^+ T cell differentiation through Tph1. Mice were subjected to EAE and were treated daily with a placebo solution (PBS) or NAD^+ in addition to p-Chlorophenylalanine, a specific inhibitor of Tph-1.
Onsets of clinical signs of EAE in mice injected with MOG peptide and a placebo solution appeared after 11 days (FIG. 6A). […] However, when NAD^+ treated mice received simultaneously a treatment with a Tph-1 inhibitor, onset of clinical signs of EAE appeared after 11 days.
EAE was induced in 10-week-old C57BL/6 mice using Hooke Labs EAE induction kit (EK-2110) according to manufacturer's instructions. […] For NAD^+ treatment mice received a daily intraperitoneal injection (60 mg in 100 μl in PBS) or a placebo solution (100 μl of PBS) at the same day than MOG immunization. Mice were sacrificed at day 18 and single cell suspension was obtained from spleens for flow cytometry analysis. To test whether NAD^+ was able to reverse the development of EAE, another group of mice was treated daily (for a period of 10 days) with NAD^+ (60 mg/mouse) or a placebo solution 15 days after MOG immunization when mice were scored 3 with a bilateral hindlimb paresis. EAE disease progression was monitored. For Tph-1 or CA3 inhibition, mice received daily intraperitoneal injections (simultaneous to NAD^−) of p-Chlorophenylalanine (1 ml of a 10 mM solution stock, catalog number 0938, Tocris Bioscience) or N-[[[(1S)-1-Carboxy-3-methylbutyl]amino]carbonyl]-L-glutamic acid (100 μl of a 100 mM solution stock, ZJ 43 catalog number 2675,Tocris Bioscience), respectively.

CD4+CD25+ nTregs = assay: IL-17A secretion by nTregs cultured with NAD+ and purinergic receptor antagonists; conditions: for reduction of IL-17A cytokine production induced by NAD+: both selective antagonists (5-BDBD and A804598) added; for production of IL-17A cytokine induced by NAD+: nTregs cultured with NAD+ and the selective antagonist (5-BDBD: P2RX4; A804598: P2RX7; MRS 2279: P2RY1), ELISA
[1] = NAD+ plus Tph-1 inhibition, flow cytometry
[2] = NAD+ treatment followed by Tph-1 inhibition, spleen, flow cytometry

## N[C@@H](Cc1ccc(Cl)cc1)C(=O)O (racemic) [p-Chlorophenylalanine]
Tph-1; EAE mice treated with NAD+ and Tph-1 inhibitor
  clinical observation: hindlimb paralysis and became rapidly lethargic
Tph-1; NAD+ and p-Chlorophenylalanine, 13 days after MOG immunization
  clinical signs of EAE vs MOG + placebo group: more severe clinical signs of EAE
Tph-1; [1]
  CD4+CD25+Foxp3+ cell frequencies: dramatic decrease
  IL-17A+IL-23R+ cells: significant increase
Tph-1; NAD+ treated mice receiving Tph-1 inhibitor simultaneously, after MOG immunization
  onset of clinical signs of EAE: 11 days
Tph-1; [2]
  IL-10/IFNγ producing cells: reduced systemically
  IL-17A producing cells: reduced systemically

## O=C1CN=C(c2cccc(Br)c2)c2oc3ccccc3c2N1 [5-BDBD]
CD4+CD25+ nTregs
  reduction of IL-17A cytokine production induced by NAD+: complete
  production of IL-17A cytokine induced by NAD+: dramatic reduced production

## C[C@H](NC(=NC#N)Nc1cccc2ncccc12)c1ccccc1 [A804598, 2-cyano-1-[(1S)-1-phenylethyl]-3-quinolin-5-ylguanidine]
CD4+CD25+ nTregs
  reduction of IL-17A cytokine production induced by NAD+: complete
  production of IL-17A cytokine induced by NAD+: dramatic reduced production

## CNc1nc(Cl)nc2c1ncn2[C@H]1C[C@H](OP(=O)(O)O)[C@]2(COP(=O)(O)O)C[C@H]12 [MRS 2279, 2-Chloro N(6)-methyl-(N)-methanocarba-2′-deoxyadenosine-3′,5′-bisphosphate]
CD4+CD25+ nTregs
  production of IL-17A cytokine induced by NAD+: did not change
